From US11046686B2, “Thiadiazole IRAK4 compounds” (Gilead Sciences, Inc., priority 2018, dated 2021) come the findings set out here.

The subject of one test is TNFα. Put plainly: IRAK4 Monocyte TNFα Cell Based Assay. The following applies: Homo sapiens, Monocyte, human monocytes; second part of Table 2, compounds 33-343; unit inferred; read-out: EC50 MONO TNF HTRF. More on the design: species or system human. On the procedure:
IRAK4 Monocyte TNFα Cell Based Assay Procedure:
The cell suspension was then plated at a density of 5,000 cells/well onto black 384 well Greiner clear bottom plates. Plates were pre-spotted with test compounds and serially diluted in DMSO where 40 nL/well were delivered using the Echo 550 acoustic liquid dispenser (Labcyte®) for a final DMSO concentration of 0.1%. Plated cells were treated with compound for 1 hour at 37° C. Cells were then stimulated with 50 pg/ml of LPS (Sigma) excluding outside columns of plate used for unstimulated cell control wells. Cells were incubated for an additional 4 hours at 37° C. Cells were then spun out of the media and 5 μl of sample were taken and analyzed for total TNFα content using the TR-FRET Human TNFα detection system (CisBio). This system utilizes two labeled antibodies (cryptate and XL665) that bind to two different epitopes of the TNFα molecule and produce FRET signal proportional to the concentration of TNFα in the sample. Detection antibodies are mixed 50:50 and 5 μL were dispensed into each well. Plates were covered with clear seals and incubated at room temp overnight. […] Percent of control was calculated as follows: % Control=100×(Ratiosample−Ratio0% stimulation)/(Ratio100% Stimulation−Ratio0% Stimulation) where unstimulated cells (0% stimulation) were the negative control and stimulated cells (100% stimulation) were used as the positive control.
Background: Time-resolved FRET reads energy transfer from a long-lived donor to a nearby acceptor.
Turning to `CC(C)Nc1cc(-c2ccc3cc(C#N)cnn23)ncc1-c1nnc([C@@H]2CC[C@H]2C(C)(C)O)s1` (racemic) [Example 88, 7-(5-(5-((1,2-trans)-2-(2-hydroxypropan-2-yl)cyclobutyl)-1,3,4-thiadiazol-2-yl)-4-(isopropylamino)pyridin-2-yl)pyrrolo[1,2-b]pyridazine-3-carbonitrile], the 50% effective concentration (EC50) amounted to 27.1 nM. As for `CC1(O)CCC(c2nnc(-c3cnc(-c4ccc5cc(C#N)cnn45)cc3NC3COC3)s2)CC1` (single isomer, unassigned) [Example 206, 7-(5-(5-(4-hydroxy-4-methylcyclohexyl)-1,3,4-thiadiazol-2-yl)-4-(oxetan-3-ylamino)pyridin-2-yl)pyrrolo[1,2-b]pyridazine-3-carbonitrile], the EC50 was 13.9 nM. Regarding `CC(=O)NC1CCN(c2nnc(-c3cnc(-c4ccc5cc(C#N)cnn45)cc3NC(C)C)s2)C[C@@H]1O` (stereo in doubt) [Example 64, N-((3S,4R)-1-(5-(6-(3-cyanopyrrolo[1,2-b]pyridazin-7-yl)-4-(isopropylamino)pyridin-3-yl)-1,3,4-thiadiazol-2-yl)-3-hydroxypiperidin-4-yl)acetamide], the EC50 was found to be 6.9 nM.

Still in this test, the particulars now being: human monocytes; second part of Table 2, compounds 33-343; unit inferred; read-out: EC50 MONO TNF HTRF.
For the compound `CC(=O)NC1CCC(F)(c2nnc(-c3cnc(-c4ccc5cc(C#N)cnn45)cc3NC3COC3)s2)CC1` (single isomer, unassigned) [Example 195, N-(4-(5-(6-(3-cyanopyrrolo[1,2-b]pyridazin-7-yl)-4-(oxetan-3-ylamino)pyridin-3-yl)-1,3,4-thiadiazol-2-yl)-4-fluorocyclohexy)acetamide], the concentration giving a half-maximal response (EC50) came to 334 nM. Same read-out and setting: for `CC(=O)NC1CCC(F)(c2nnc(-c3cnc(-c4ccc5cc(C#N)cnn45)cc3NC3COC3)s2)CC1` (single isomer, unassigned) [Example 196, N-(4-(5-(6-(3-cyanopyrrolo[1,2-b]pyridazin-7-yl)-4-(oxetan-3-ylamino)pyridin-3-yl)-1,3,4-thiadiazol-2-yl)-4-fluorocyclohexy)acetamide] the value was 107 nM. On the same count and under the same terms, to `CC(=O)N1CCN(c2nnc(-c3cnc(-c4ccc5cc(C#N)cnn45)cc3NC(C)C)s2)CC1` [Compound 232, 7-(5-(5-(4-acetylpiperazin-l-yl)-1,3,4-thiadiazol-2-yl)-4-(isopropylamino)pyridin-2-yl)pyrrolo[1,2-b]pyridazine-3-carbonitrile] belongs 7.4 nM. The same measure, in the same setting: for `CC(=O)N[C@@H]1[C@@H]2CN(c3nnc(-c4cnc(-c5ccc6cc(C#N)cnn56)cc4NC(C)C)s3)C[C@@H]21` [Compound 239, N-((1R,5S,6r)-3-(5-(6-(3-cyanopyrrolo[1,2-b]pyridazin-7-yl)-4-(isopropylamino)pyridin-3-yl)-1,3,4-thiadiazol-2-yl)-3-azabicyclo[3.1.0]hexan-6-yl)acetamide] the value was 4.9 nM; for `CC(=O)N[C@H]1[C@@H]2CN(c3nnc(-c4cnc(-c5ccc6cc(C#N)cnn56)cc4NC(C)C)s3)C[C@@H]21` [Compound 240, N-((1R,5S,6s)-3-(5-(6-(3-cyanopyrrolo[1,2-b]pyridazin-7-yl)-4-(isopropylamino)pyridin-3-yl)-1,3,4-thiadiazol-2-yl)-3-azabicyclo[3.1.0]hexan-6-yl)acetamide], 8.9 nM. With `CC(=O)NC1CCC(c2nnc(-c3cnc(-c4ccc5cc(C#N)cnn45)cc3NC34CCC(O)(CC3)CC4)s2)CC1` (stereo not drawn) [Compound 241, N-((1r,4r)-4-(5-(6-(3-cyanopyrrolo[1,2-b]pyridazin-7-yl)-4-((4-hydroxybicyclo[2.2.2]octan-1-yl)amino)pyridin-3-yl)-1,3,4-thiadiazol-2-yl)cyclohexyl)acetamide], the EC50 came to 4.8 nM.

With `CC(=O)N[C@H]1CC[C@H](c2nnc(-c3cnc(-c4ccc5cc(C#N)cnn45)cc3N[C@H]3C[C@@](C)(O)C3)s2)CC1` [Compound 243, N-((1R,4r)-4-(5-(6-(3-cyanopyrrolo[1,2-b]pyridazin-7-yl)-4-(((1s,3S)-3-hydroxy-3-methylcyclobutyl)amino)pyridin-3-yl)-1,3,4-thiadiazol-2-yl)cyclohexyl)acetamide], the EC50 came out at 6.4 nM.

Regarding `CC(=O)N[C@H]1CC[C@H](c2nnc(-c3cnc(-c4ccc5cc(C#N)cnn45)cc3N[C@H]3CCC[C@@H](O)C3)s2)CC1` [Compound 245, N-((1S,4r)-4-(5-(6-(3-cyanopyrrolo[1,2-b]pyridazin-7-yl)-4-(((1S,3R)-3-hydroxycyclohexyl)amino)pyridin-3-yl)-1,3,4-thiadiazol-2-yl)cyclohexyl)acetamide], the EC50 was found to be 3.2 nM.

Take `CC(=O)N[C@H]1CC[C@H](c2nnc(-c3cnc(-c4ccc5cc(C#N)cnn45)cc3NC3CCOCC3)s2)CC1` [Compound 255, N-((1r,4r)-4-(5-(6-(3-cyanopyrrolo[1,2-b]pyridazin-7-yl)-4-((tetrahydro-2H-pyran-4-yl)amino)pyridin-3-yl)-1,3,4-thiadiazol-2-yl)cyclohexyl)acetamide]: the EC50 came out at 5.1 nM. Same read-out and setting: to `CC(=O)N1C2CC1CN(c1nnc(-c3cnc(-c4ccc5cc(C#N)cnn45)cc3NC(C)C)s1)C2` [Compound 258, 7-(5-(5-(6-acetyl-3,6-diazabicyclo[3.1.1]heptan-3-yl)-1,3,4-thiadiazo1-2-yl)-4-(isopropylamino)pyridin-2-yl)pyrrolo[1,2-b]pyridazine-3-carbonitrile] belongs 5.8 nM; to `CC(=O)N1CC2CCC(C1)N2c1nnc(-c2cnc(-c3ccc4cc(C#N)cnn34)cc2NC(C)C)s1` [Compound 260, 7-(5-(5-(3-acety1-3,8-diazabicyclo[3.2.1]octan-8-yl)-1,3,4-thiadiazol-2-yl)-4-(isopropylamino)pyridin-2-yl)pyrrolo[1,2-b]pyridazine-3-carbonitrile], 15.8 nM; to `CC(=O)N1CC2CC(C1)N2c1nnc(-c2cnc(-c3ccc4cc(C#N)cnn34)cc2NC(C)C)s1` [Compound 261, 7-(5-(5-(3-acety1-3,6-diazabicyclo[3.1.1]heptan-6-yl)-1,3,4-thiadiazol-2-yl)-4-(isopropylamino)pyridin-2-yl)pyrrolo[1,2-b]pyridazine-3-carbonitrile], 18.3 nM. The same measure, in the same setting: to `CC(C)Nc1cc(-c2ccc3cc(C#N)cnn23)ncc1-c1nnc(N2CCS(=N)(=O)CC2)s1` [Compound 262, 7-(5-(5-(1-imino-1-oxido-116-thiomorpholino)-1,3,4-thiadiazo1-2-yl)-4-(isopropylamino)pyridin-2-yl)pyrrolo[1,2-b]pyridazine-3-carbonitrile] belongs 69.9 nM; to `CC(=O)N1C2CCC1CN(c1nnc(-c3cnc(-c4ccc5cc(C#N)cnn45)cc3NC3(C)COC3)s1)C2` [Compound 264], 2.7 nM; to `CC(=O)N1C[C@H]2COC[C@@H](C1)N2c1nnc(-c2cnc(-c3ccc4cc(C#N)cnn34)cc2NC(C)C)s1` [Compound 266], 3.2 nM.

Turning to `CC(=O)N[C@H]1CC[C@H](c2nnc(-c3cnc(-c4ccc5cc(C#N)cnn45)cc3NC3(C)CCOCC3)s2)CC1` [Compound 268, N-((1r,4r)-4-(5-(6-(3-cyanopyrrolo[1,2-b]pyridazin-7-yl)-4-((4-methyltetrahydro-2H-pyran-4-yl)amino)pyridin-3-yl)-1,3,4-thiadiazol-2-yl)cyclohexyl)acetamide], the EC50 amounted to 14.1 nM. In the case of `CC(=O)N1[C@@H]2COC[C@H]1CN(c1nnc(-c3cnc(-c4ccc5cc(C#N)cnn45)cc3NC3CCOCC3)s1)C2` [Compound 269, 7-(5-(5-((1R,5S)-9-acety1-3-oxa-7,9-diazabicyclo[3.3.1]nonan-7-yl)-1,3,4-thiadiazol-2-yl)-4-((tetrahydro-2H-pyran-4-yl)amino)pyridin-2-yl)pyrrolo[1,2-b]pyridazine-3-carbonitrile], the EC50 stood at 5.8 nM. Same read-out and setting: for `CC(=O)N[C@@H]1[C@@H]2CC[C@H]1CN(c1nnc(-c3cnc(-c4ccc5cc(C#N)cnn45)cc3NC3(C)CCOCC3)s1)C2` [Compound 272, N-((1R,5S,8s)-3-(5-(6-(3-cyanopyrrolo[1,2-b]pyridazin-7-yl)-4-((4-methyltetrahydro-2H-pyran-4-yl)amino)pyridin-3-yl)-1,3,4-thiadiazol-2-yl)-3-azabicyclo[3.2.1]octan-8-yl)acetamide] the value was 4.1 nM; for `CC(C)Nc1cc(-c2ccc3cc(C#N)cnn23)ncc1-c1nnc(N2C3CC2CN(C(=O)CN=S(C)(C)=O)C3)s1` [Compound 276, 7-(5-(5-(3-(2-((dimethyl(oxo)-16-sulfanylidene)amino)acetyl)-3,6-diazabicyclo[3.1.1]heptan-6-yl)-1,3,4-thiadiazol-2-yl)-4-(isopropylamino)pyridin-2-yl)pyrrolo[1,2-b]pyridazine-3-carbonitrile], 7.8 nM; for `CC(=O)N[C@H]1C[C@H](c2nnc(-c3cnc(-c4ccc5cc(C#N)cnn45)cc3NC(C)C)s2)C1` [Compound 278, N-((1r,3r)-3-(5-(6-(3-cyanopyrrolo[1,2-b]pyridazin-7-yl)-4-(isopropylamino)pyridin-3-yl)-1,3,4-thiadiazol-2-yl)cyclobutyl)acetamide], 10000 nM.

Turning to `CC(=O)N[C@H]1C[C@@H](c2nnc(-c3cnc(-c4ccc5cc(C#N)cnn45)cc3NC(C)C)s2)C1` [Compound 279, N-((1s,3s)-3-(5-(6-(3-cyanopyrrolo[1,2-b]pyridazin-7-yl)-4-(isopropylamino)pyridin-3-yl)-1,3,4-thiadiazol-2-yl)cyclobutyl)acetamide], the concentration for a half-maximal effect (EC50) worked out at 15.9 nM.

For orientation: EC50 means the concentration needed to bring the measured effect to its halfway point.
